Source: patent US20130178653A1, “NOVEL PRECURSOR OF RADIOLABELLED CHOLINE ANALOG COMPOUNDS” (IMPERIAL COLLEGE, priority 2010, published 2013)
Where two headings read alike, the source gives them in different places.

Columns and labels:
HCT116 tumors = assay: Effect of PD0325901 treatment in HCT116 tumor bearing mice ([^18F]D4-FCH-PET, tumor size); assay type: in vivo
Procedure: Dynamic [^18F]FCH and [^18F]D4-FCH imaging scans were carried out on a dedicated small animal PET scanner, quad-HIDAC (Oxford Positron Systems). The features of this instrument have been described previously (Barthel, H., et al., Cancer Res 2003; 63(13):3791-8). For scanning the tail veins, vehicle- or drug-treated mice were cannulated after induction of anesthesia (isofluorane/O2/N2O). The animals were placed within a thermostatically controlled jig (calibrated to provide a rectal temperature of ˜37° C.) and positioned prone in the scanner. [^18F]FCH or [^18F]D4-FCH (2.96-3.7 MBq) was injected via the tail vein cannula and scanning commenced. Dynamic scans were acquired in list mode format over a 60 min period as reported previously (Leyton, J., et al., Cancer Research 2006; 66(15):7621-9). The acquired data were sorted into 0.5 mm sinogram bins and 19 time frames (0.5×0.5×0.5 mm voxels; 4×15, 4×60, and 11×300 s) for image reconstruction, which was done by filtered back-projection using a two-dimensional Hamming filter (cutoff 0.6). The image data sets were visualized using the Analyze software (version 6.0; Biomedical Imaging Resource, Mayo Clinic). Cumulative images of 30 to 60 min dynamic data were used for visualization of radiotracer uptake and to draw regions of interest. Regions of interest were defined manually on five adjacent tumor regions (each 0.5 mm thickness). Dynamic data from these slices were averaged for each tissue (liver, kidney, muscle, urine, and tumor) and at each of the 19 time points to obtain time versus radioactivity curves. Corresponding whole body time versus radioactivity curves representing injected radioactivity were obtained by adding together radioactivity in all 200×160×160 reconstructed voxels. Tumor radioactivity was normalized to whole-body radioactivity and expressed as percent injected dose per voxel (% ID/vox). The normalized uptake of radiotracer at 60 min (% ID/vox60) was used for subsequent comparisons. […] The area under the curve was calculated as the integral of % ID/vox from 0 to 60 min

choline kinase A (CHKA) = assay: Choline kinase A expression in HCT116 tumors by western blotting; assay type: in vivo, mice; conditions: day 10, 25 mg/kg daily orally
Procedure: HCT116 tumors from mice that were injected with PD0325901 (25 mg/kg daily for 10 days, orally) or vehicle were analyzed for CHKA expression by western blotting. β-actin was used as the loading control. (b) Summary densitometer measurements for CHKA expression expressed as a ratio to β-actin. The results are the mean ratios±SE; n=3, * P=0.05.
Size-matched HCT116 tumor bearing mice were randomized to receive daily treatment by oral gavage of vehicle (0.5% hydroxypropyl methylcellulose+0.2% Tween 80) or 25 mg/kg (0.005 mL/g mouse) of the mitogenic extracellular kinase inhibitor, PD0325901, prepared in vehicle. [^18F]D4-FCH-PET scanning was done after 10 daily treatments with the last dose administered 1 h before scanning. […] The results are illustrated in FIGS. 18 and 19.
To understand further the mechanisms regulating [^18F]D4-FCH uptake with drug treatment, changes in CHKA expression in PD0325901 and vehicle-treated tumors excised after PET scanning were assessed.

HCT116 cells = assay: Effect of PD0325901 on [^18F]D4-FCH metabolism and CHKA expression in HCT116 cells in culture; assay type: cell-based, human
Procedure: HCT116 cells were grown in T150 flasks in triplicate until they were 70% confluent and then treated with vehicle (1% DMSO in growth medium) or 1 μmol/L PD0325901 in vehicle for 24 h. Cells were pulsed for 1 h with 1.1 MBq of either [^18F]D4-FCH or [^18F]FCH. The cells were washed three times in ice-cold phosphate buffered saline (PBS), scraped into 5 mL PBS, and centrifuged at 500×g for 3 min and then resuspended in 2 mL ice-cold methanol for HPLC analysis as described above for tissue samples. […] Briefly, HCT116 cells were grown in 100 mm dishes in triplicate and incubated with 5.0 MBq [^18F]FCH for 60 min at 37° C. to form the putative [^18F]FCH-phosphate. The cells were washed with 5 mL ice-cold PBS twice and then scraped and centrifuged at 750×g (4° C., 3 min) in 5 mL PBS. Cells were homogenized in 1 mL of 5 mmol/L Tris-HCl (pH 7.4) containing 50% (v/v) glycerol, 0.5 mmol/L MgCl2, and 0.5 mmol/L ZnCl2 and incubated with 10 units bacterial (type III) alkaline phosphatase (Sigma) at 37° C. in a shaking water bath for 30 min to dephosphorylate the [^18F]FCH-phosphate. The reaction was terminated by adding ice-cold methanol. Samples were processed as per plasma above and analyzed by radio-HPLC. Control experiments were done without alkaline phosphatase. […]

[1] = for parent compound still present after potassium permanganate treatment: 1 hour post-treatment, KMnO4, Na2CO3, H2O, rt, radio-HPLC
[2] = mouse, in vivo; for form of radioactivity in tumors: iv
Procedure: Metabolite analysis of tissues including liver, kidney and tumor by HPLC was also accomplished. […] Choline and its metabolites lack any UV chromophore to permit presentation of chromatograms of the cold unlabelled compound simultaneously with the radioactivity chromatograms.
Liver, kidney, and tumor samples were obtained at 30 min. All samples were snap-frozen in liquid nitrogen. […] To ˜0.2 mL plasma was added ice-cold methanol (1.5 mL). The mixture was then centrifuged (3 min, 15,493×g, 4jC). […] Liver, kidney, and tumor samples were homogenized in ice-cold methanol (1.5 mL) using an IKA Ultra-Turrax T-25 homogenizer and subsequently treated as per plasma samples (above). All samples were analyzed by radio-HPLC on an Agilent 1100 series HPLC system (Agilent Technologies) equipped with a γ-RAM Model 3 γ-detector (IN/US Systems) and Laura 3 software (Lablogic). The stationary phase comprised a Waters μBondapak C18 reverse-phase column (300×7.8 mm) (Waters, Milford, Mass., USA). Samples were analyzed using a mobile phase comprising solvent A (acetonitrile/water/ethanol/acetic acid/1.0 mol/L ammonium acetate/0.1 mol/L sodium phosphate; 800/127/68/2/3/10) and solvent B (acetonitrile/water/ethanol/acetic acid/1.0 mol/L ammonium acetate/0.1 mol/L sodiumphosphate; 400/400/68/44/88/10) with a gradient of 0% B for 6 min, then 0>100% B in 10 min, 100% B for 0.5 min, 100>0% B in 1.5 min then 0% B for 2 min, delivered at a flow rate of 3 mL/min

[3] = mouse, in vivo
choline oxidase [4] = assay: Enzymatic oxidation study using choline oxidase; conditions: 60 minute time point, room temperature, pH 7
[5] = system: human melanoma SKMEL-28 xenografts; conditions: mouse, in vivo
Procedure: (§1) Dynamic [^18F]FCH and [^18F]D4-FCH imaging scans were carried out on a dedicated small animal PET scanner, quad-HIDAC (Oxford Positron Systems). The features of this instrument have been described previously (Barthel, H., et al., Cancer Res 2003; 63(13):3791-8). For scanning the tail veins, vehicle- or drug-treated mice were cannulated after induction of anesthesia (isofluorane/O2/N2O). The animals were placed within a thermostatically controlled jig (calibrated to provide a rectal temperature of ˜37° C.) and positioned prone in the scanner. [^18F]FCH or [^18F]D4-FCH (2.96-3.7 MBq) was injected via the tail vein cannula and scanning commenced. Dynamic scans were acquired in list mode format over a 60 min period as reported previously (Leyton, J., et al., Cancer Research 2006; 66(15):7621-9). The acquired data were sorted into 0.5 mm sinogram bins and 19 time frames (0.5×0.5×0.5 mm voxels; 4×15, 4×60, and 11×300 s) for image reconstruction, which was done by filtered back-projection using a two-dimensional Hamming filter (cutoff 0.6). The image data sets were visualized using the Analyze software (version 6.0; Biomedical Imaging Resource, Mayo Clinic). Cumulative images of 30 to 60 min dynamic data were used for visualization of radiotracer uptake and to draw regions of interest. Regions of interest were defined manually on five adjacent tumor regions (each 0.5 mm thickness). Dynamic data from these slices were averaged for each tissue (liver, kidney, muscle, urine, and tumor) and at each of the 19 time points to obtain time versus radioactivity curves. Corresponding whole body time versus radioactivity curves representing injected radioactivity were obtained by adding together radioactivity in all 200×160×160 reconstructed voxels. Tumor radioactivity was normalized to whole-body radioactivity and expressed as percent injected dose per voxel (% ID/vox). The normalized uptake of radiotracer at 60 min (% ID/vox60) was used for subsequent comparisons. The average of the normalized maximum voxel intensity across five slices of tumor % IDvox60max was also use for comparison to account for tumor heterogeneity and existence of necrotic regions in tumor. The area under the curve was calculated as the integral of % ID/vox from 0 to 60 min

[6] = system: HCT116 human colon xenografts; conditions: mouse, in vivo
Procedure: Time course biodistribution was carried out for [^18F]fluoromethylcholine, [^18F]fluoromethyl-[1-^2H2]choline and [^18F]fluoromethyl-[1,2-^2H4]choline in nude mice bearing HCT116 human colon xenografts.
Human colon (HCT116) tumors were grown in […] (Harlan, Bicester, United Kingdom) as previously reported (Leyton, J., et al., Cancer Research 2005; 65(10):4202-10). Tumor dimensions were measured continuously using a caliper and tumor volumes were calculated by the equation: volume=(π/6)×a×b×c, where a, b, and c represent three orthogonal axes of the tumor. Mice were used when their tumors reached approximately 100 mm^3. [^18F]Fluoromethylcholine, [^18F]fluoromethyl-[1-^2H2]choline and [^18F]fluoromethyl-[1,2-^2H4]choline (˜3.7 MBq) were each injected via the tail vein into awake untreated tumor bearing mice. The mice were sacrificed at pre-determined time points (2, 30 and 60 min) after radiotracer injection under terminal anesthesia to obtain blood, plasma, tumor, heart, lung, liver, kidney and muscle. Tissue radioactivity was determined on a gamma counter (Cobra II Auto-Gamma counter, Packard Biosciences Co, Pangbourne, UK) and decay corrected. Data were expressed as percent injected dose per gram of tissue.

[7] = mouse, in vivo, 60 min
Procedure: as §1

choline oxidase [8] = conditions: 60 min, 1.76 MBq/mL, pH 7
[9] = Oxidation potential in vivo (radio-HPLC of mouse plasma after i.v. injection); conditions: 15 min after i.v. injection into mice

O=C(NOC[C@H](O)CO)c1ccc(F)c(F)c1Nc1ccc(I)cc1F [PD0325901]
[^18F]D4-FCH radiotracer retention in treated tumors (HCT116 tumors; 10 daily treatments 25 mg/kg, HCT116 tumors, PET): marked reduction in radiotracer retention | imaging variables (% ID/vox60, % ID/vox60max, AUC) of [^18F]D4-FCH (HCT116 tumors; after 10 days of drug treatment, HCT116 tumors): decreased | reduction in tumor size compared to the pretreatment group (HCT116 tumors; day 10, 25 mg/kg daily oral, HCT116 xenograft): 12.2% | CHKA protein expression in tumors (choline kinase A (CHKA)): significant reduction | [^18F]D4-FCH-phosphocholine formation (HCT116 cells; 1 μmol/L for 24 h, 60-min uptake of [^18F]D4-FCH): significantly inhibited | CHKA expression in vitro (HCT116 cells; exponentially growing cells): reduction of CHKA expression

[2H]C([2H])(O)C([2H])([2H])[N+](C)(C)C[18F] [[^18F]D4-FCH, [^18F]fluoromethyl-[1,2-^2H4]choline]
proportion of parent compound remaining (radio-HPLC), relative to [^18F]fluoromethylcholine ([1]; 20 min): greater proportion of the parent compound remaining | parent compound still present after potassium permanganate treatment [1]: ~80% | kidney radioactivity in the form of betaine [2]: 20.6±6.2% | kidney radioactivity present as phosphocholine [2]: 60.6±3.7% | liver radioactivity present as phosphocholine [2]: high proportion | unknown metabolite (possibly the aldehyde intermediate) in liver [2]: 7.4±2.3% | unknown metabolite in kidney [2]: 8.8±0.2% | form of radioactivity in tumors [2]: mainly in the form of phosphocholine | percentage of parent compound in plasma compared to [^18F]FCH [3]: consistently higher | conversion of parent tracer to betaine metabolite in plasma ([3]; iv): 40% | parent radiotracer present (radio-HPLC distribution of choline species) (choline oxidase [4]): 29±4% | %IDvox60max (average of maximum pixel % ID/vox60 across 5 slices) compared to [^18F]FCH [5]: significantly higher | tumor area under the time versus radioactivity curve (AUC) compared to FCH [5]: higher | tumor uptake at the later time points [6]: pronounced increase

C[N+](C)(C[18F])CCO [[^18F]FCH, [^18F]Fluoromethylcholine]
parent compound still present after potassium permanganate treatment [1]: less than 40% | liver radioactivity present as phosphocholine [2]: high proportion | unknown metabolite (possibly the aldehyde intermediate) in liver [2]: not found | kidney radioactivity in the form of betaine ([2]; 30 min): 53.5±5.3% | kidney radioactivity present as phosphocholine ([2]; 30 min): 31.8±9.8% | unknown metabolite in kidney ([2]; 30 min): 3.3±0.6% | form of radioactivity in tumors ([2]; 30 min): significant levels of [^18F]FCH-betaine | tumor radiotracer uptake, % ID/vox60 ([5]; 60 min): 5.50±0.49 % ID/vox | bladder (urine) radioactivity, % ID/vox60 [7]: 6.70±0.71 % ID/vox | kidney radioactivity, % ID/vox60 [7]: 15.97±4.65 % ID/vox | liver radioactivity, % ID/vox60 [7]: 18.75±4.28 % ID/vox | parent radiotracer present (radio-HPLC distribution of choline species) (choline oxidase [8]): 11±8% | conversion of parent tracer to betaine metabolite in plasma [9]: 80%
